Measurements taken from the Kinase Knowledgebase extract (Sharma et al. 2016).
pIC50: −log10 of the molar value.

Molecular target: ROCK2 (human) (UniProt O75116)
Assay: Inhibition of ROCK2 Kinase Activity

ROCK2 (human), sequence (O75116 whole entry, looked up): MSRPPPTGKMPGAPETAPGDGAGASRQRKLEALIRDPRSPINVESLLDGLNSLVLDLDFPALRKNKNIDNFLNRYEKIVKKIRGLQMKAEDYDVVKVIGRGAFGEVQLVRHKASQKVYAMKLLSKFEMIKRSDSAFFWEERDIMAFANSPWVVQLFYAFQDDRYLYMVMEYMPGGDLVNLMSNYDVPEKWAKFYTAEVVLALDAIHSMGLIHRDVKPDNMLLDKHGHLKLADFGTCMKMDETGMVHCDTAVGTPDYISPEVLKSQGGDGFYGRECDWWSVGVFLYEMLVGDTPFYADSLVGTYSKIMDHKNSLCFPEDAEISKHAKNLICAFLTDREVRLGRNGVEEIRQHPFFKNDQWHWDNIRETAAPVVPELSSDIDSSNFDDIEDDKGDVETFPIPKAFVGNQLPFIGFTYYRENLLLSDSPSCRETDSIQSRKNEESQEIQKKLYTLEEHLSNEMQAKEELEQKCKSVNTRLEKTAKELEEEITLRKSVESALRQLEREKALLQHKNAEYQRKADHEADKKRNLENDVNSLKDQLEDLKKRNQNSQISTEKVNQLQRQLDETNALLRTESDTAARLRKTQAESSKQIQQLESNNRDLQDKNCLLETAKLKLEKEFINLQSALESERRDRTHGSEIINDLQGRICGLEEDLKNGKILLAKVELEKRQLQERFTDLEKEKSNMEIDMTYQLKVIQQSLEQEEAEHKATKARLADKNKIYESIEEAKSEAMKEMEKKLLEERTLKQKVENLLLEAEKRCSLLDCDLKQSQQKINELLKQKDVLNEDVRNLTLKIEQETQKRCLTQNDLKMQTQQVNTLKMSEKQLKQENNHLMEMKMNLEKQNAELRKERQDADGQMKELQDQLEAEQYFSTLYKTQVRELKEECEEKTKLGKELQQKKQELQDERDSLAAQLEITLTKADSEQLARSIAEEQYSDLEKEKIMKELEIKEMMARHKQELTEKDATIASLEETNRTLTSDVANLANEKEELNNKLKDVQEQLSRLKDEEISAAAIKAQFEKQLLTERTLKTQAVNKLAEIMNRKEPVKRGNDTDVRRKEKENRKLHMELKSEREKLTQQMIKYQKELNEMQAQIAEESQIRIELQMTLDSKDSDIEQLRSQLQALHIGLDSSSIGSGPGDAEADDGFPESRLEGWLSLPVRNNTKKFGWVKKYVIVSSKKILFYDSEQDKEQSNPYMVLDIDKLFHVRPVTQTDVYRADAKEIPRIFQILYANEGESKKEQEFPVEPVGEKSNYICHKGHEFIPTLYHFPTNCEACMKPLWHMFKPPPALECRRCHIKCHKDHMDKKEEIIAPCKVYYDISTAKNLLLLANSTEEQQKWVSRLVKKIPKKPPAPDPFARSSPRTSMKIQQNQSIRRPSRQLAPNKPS

Compound: N[C@@H](C(=O)Nc1ccc2c(=O)[nH]cnc2c1)c1ccccc1
- pIC50: > 6.00

Compound: O=C(Nc1ccc2c(=O)[nH]ccc2c1)[C@H]1CCCNC1
- pIC50: > 6.00

Compound: O=C(Nc1ccc2c(=O)[nH]cnc2c1)C1CCCN1 (configuration not stated)
- pIC50: > 6.00

Compound: O=C(CNCC1CCCCC1)Nc1ccc2c(=O)[nH]cnc2c1
- pIC50: > 6.00

Compound: O=C(Nc1cc2nc[nH]c(=O)c2cc1Cl)[C@H]1CNC[C@@H]1c1cccc(Br)c1
- pIC50: > 6.00

Compound: Cc1ccc(F)cc1C(=O)Nc1cc2cc[nH]c(=O)c2cc1Cl
- pIC50: > 6.00

Compound: O=C(Nc1cc2cc[nH]c(=O)c2cc1Cl)[C@H]1CCCCN1
- pIC50: > 6.00

Compound: Cc1cc([N+](=O)[O-])ccc1C(=O)Nc1cc2cc[nH]c(=O)c2cc1Cl
- pIC50: > 6.00

Compound: O=C(Nc1ccc2c(=O)[nH]ccc2c1)c1cccnc1Oc1ccc(Cl)cc1
- pIC50: > 6.00

Compound: CC(C)(C)CC(=O)Nc1cc2cc[nH]c(=O)c2cc1Cl
- pIC50: > 6.00

Compound: O=C(CNCC1CCOCC1)Nc1cc2cc[nH]c(=O)c2cc1Cl
- pIC50: > 6.00

Compound: O=C(Nc1c(Cl)cc2c(=O)[nH]ccc2c1F)[C@H]1CNC[C@@H]1c1ccccc1
- pIC50: > 6.00

Compound: O=C(Nc1ccc2c(=O)[nH]cnc2c1)C1CCN(Cc2ccccc2)CC1
- pIC50: > 6.00

Compound: CC(=O)OC(C(=O)Nc1cc2cc[nH]c(=O)c2cc1Cl)c1ccccc1 (configuration not stated)
- pIC50: > 6.00

Compound: O=C(Nc1cc2cc[nH]c(=O)c2cc1Cl)C(c1ccccc1)N1CCC(O)CC1 (configuration not stated)
- pIC50: > 6.00

Compound: O=C(Nc1ccc2c(=O)[nH]ccc2c1)c1cc(Cl)sc1Cl
- pIC50: > 6.00

Compound: O=C(Nc1cc2cc[nH]c(=O)c2cc1Cl)[C@H](O)c1cccc(Cl)c1
- pIC50: > 6.00

Compound: O=C(CNCc1ccccn1)Nc1cc2cc[nH]c(=O)c2cc1Cl
- pIC50: > 6.00

Compound: COc1cc2c(=O)[nH]ccc2cc1NC(=O)[C@@H](N)C1CCCCC1
- pIC50: > 6.00

Compound: CNC(C(=O)Nc1ccc2c(=O)[nH]cnc2c1)c1ccccc1 (configuration not stated)
- pIC50: > 6.00

Compound: NCCC(=O)Nc1cc2cc[nH]c(=O)c2cc1Cl
- pIC50: > 6.00

Compound: O=C(Nc1cc2cc[nH]c(=O)c2cc1Cl)C1CCN(Cc2ccccc2)CC1
- pIC50: > 6.00

Compound: O=C(Nc1ccc2c(=O)[nH]cnc2c1)C1CCCNC1 (configuration not stated)
- pIC50: > 6.00

Compound: O=C(Nc1cc2cc[nH]c(=O)c2cc1Cl)[C@@H]1CCCO1
- pIC50: > 6.00

Compound: Cc1ccc([C@@H](N)C(=O)Nc2cc3cc[nH]c(=O)c3cc2Cl)cc1
- pIC50: > 6.00

Compound: O=C(CNC1CCCc2ccccc21)Nc1cc2cc[nH]c(=O)c2cc1Cl (configuration not stated)
- pIC50: > 6.00

Compound: O=C(Nc1ccc2c(=O)[nH]ccc2c1)c1cccs1
- pIC50: > 6.00

Compound: COc1cc2c(=O)[nH]ccc2cc1NC(=O)[C@H](N)C1CCCCC1
- pIC50: > 6.00

Compound: O=C(Nc1cc2cc[nH]c(=O)c2cc1Cl)[C@H]1CCCNC1
- pIC50: > 6.00

Compound: O=C(CNCC1CCCCC1)Nc1cc2cc[nH]c(=O)c2cc1Cl
- pIC50: > 6.00

Compound: NC(Cc1ccc(F)cc1)C(=O)Nc1cc2cc[nH]c(=O)c2cc1Cl (configuration not stated)
- pIC50: > 6.00

Compound: O=C(Nc1ccc2c(=O)[nH]cnc2c1)C1(c2ccc(Cl)cc2)CCCC1
- pIC50: > 6.00

Compound: O=c1[nH]ccc2cc(NC(=O)[C@H]3CC[C@@H](O)CC3)c(Cl)cc12
- pIC50: > 6.00

Compound: O=C(Nc1cc2cc[nH]c(=O)c2cc1Cl)C1(c2ccccc2)CCNCC1
- pIC50: > 6.00

Compound: CC(NCCc1cccs1)C(=O)Nc1cc2cc[nH]c(=O)c2cc1Cl (configuration not stated)
- pIC50: > 6.00

Compound: CCOCCCNC(C(=O)Nc1cc2cc[nH]c(=O)c2cc1Cl)c1ccccc1 (configuration not stated)
- pIC50: > 6.00

Compound: CN(C)C(C(=O)Nc1ccc2c(=O)[nH]ccc2c1)c1ccccc1 (configuration not stated)
- pIC50: > 6.00

Compound: O=C(Nc1cc2cc[nH]c(=O)c2cc1Cl)[C@@H](O)c1ccccc1
- pIC50: > 6.00

Compound: NC1(C(=O)Nc2ccc3c(=O)[nH]ccc3c2)CCCCC1
- pIC50: > 6.00

Compound: O=C(Nc1cc2cc[nH]c(=O)c2cc1Cl)c1cccc2c1CCNC2
- pIC50: > 6.00

Compound: CS(=O)(=O)c1ccc(C(=O)Nc2cc3cc[nH]c(=O)c3cc2Cl)cc1
- pIC50: > 6.00

Compound: O=C(Nc1cc2cc[nH]c(=O)c2cc1Cl)C1(Cc2ccccc2)CCNCC1
- pIC50: > 6.00

Compound: CC(C)CC(N)C(=O)Nc1ccc2c(=O)[nH]cnc2c1 (configuration not stated)
- pIC50: > 6.00

Compound: O=C(Nc1cc2cc[nH]c(=O)c2cc1Cl)[C@H]1CNC[C@@H]1c1ccc(F)cc1
- pIC50: > 6.00

Compound: O=C(Nc1cc2cc[nH]c(=O)c2cc1Cl)[C@@H]1[C@@H]2CNC[C@@H]21
- pIC50: > 6.00

Compound: CC(C)N1CCC(C(=O)Nc2cc3cc[nH]c(=O)c3cc2Cl)CC1
- pIC50: > 6.00

Compound: O=C(CNCc1ccccc1)Nc1ccc2c(=O)[nH]cnc2c1
- pIC50: > 6.00

Compound: CS(=O)(=O)c1ccc(Cl)c(C(=O)Nc2cc3cc[nH]c(=O)c3cc2Cl)c1
- pIC50: > 6.00

Compound: O=C(Nc1cc2cc[nH]c(=O)c2cc1Cl)C1CNCC(c2ccccc2)C1 (configuration not stated)
- pIC50: > 6.00

Compound: CC(C)(N)C(=O)Nc1ccc2c(=O)[nH]ccc2c1
- pIC50: > 6.00

Compound: CN1CCC(C(=O)Nc2cc3cc[nH]c(=O)c3cc2Br)CC1
- pIC50: > 6.00

Compound: O=C(Cc1ccc(F)cc1)Nc1cc2cc[nH]c(=O)c2cc1Cl
- pIC50: > 6.00

Compound: N#CCC(=O)Nc1cc2cc[nH]c(=O)c2cc1Cl
- pIC50: > 6.00

Compound: O=C(Nc1ccc2c(=O)[nH]ccc2c1)C1(c2ccc(Cl)cc2)CCCC1
- pIC50: > 6.00

Compound: O=C(Nc1cc2cc[nH]c(=O)c2cc1Cl)[C@H](O)c1ccccc1Cl
- pIC50: > 6.00

Compound: CC1(C(=O)Nc2cc3cc[nH]c(=O)c3cc2Cl)CCN(S(C)(=O)=O)CC1
- pIC50: > 6.00

Compound: COc1cc2c(=O)[nH]ccc2cc1NC(=O)[C@@H](OC)c1ccccc1
- pIC50: > 6.00

Compound: O=C(Nc1ccc2c(=O)[nH]ccc2c1)C1CNCC1c1ccccc1 (configuration not stated)
- pIC50: > 6.00

Compound: COC(C(=O)Nc1cc2cc[nH]c(=O)c2cc1Cl)(c1ccccc1)C(F)(F)F (configuration not stated)
- pIC50: > 6.00

Compound: NC(C(=O)Nc1ccc2c(=O)[nH]cnc2c1)c1ccccc1 (configuration not stated)
- pIC50: > 6.00

Compound: O=C(Nc1cc2cc[nH]c(=O)c2cc1Cl)c1ccc([N+](=O)[O-])cc1Cl
- pIC50: > 6.00

Compound: C[C@H]1CN(C)CC[C@@H]1C(=O)Nc1cc2cc[nH]c(=O)c2cc1Cl
- pIC50: > 6.00

Compound: C[C@H]1CC(=O)CC[C@@H]1C(=O)Nc1cc2cc[nH]c(=O)c2cc1Cl
- pIC50: > 6.00

Compound: N[C@H]1CC[C@](C(=O)Nc2cc3cc[nH]c(=O)c3cc2Cl)(c2ccc(Cl)cc2)CC1
- pIC50: > 6.00

Compound: O=C(Nc1ccc2c(=O)[nH]ccc2c1)C1CNCC1c1ccc(F)cc1 (configuration not stated)
- pIC50: > 6.00

Compound: C[C@H]1CNCC[C@@H]1C(=O)Nc1cc2cc[nH]c(=O)c2cc1Cl
- pIC50: > 6.00

Compound: N[C@H]1CCC[C@@H](C(=O)Nc2cc3cc[nH]c(=O)c3cc2Cl)C1
- pIC50: > 6.00

Compound: CC(=O)O[C@H]1CC[C@@H](C(=O)Nc2cc3cc[nH]c(=O)c3cc2Cl)CC1
- pIC50: > 6.00

Compound: CSCC(=O)Nc1cc2cc[nH]c(=O)c2cc1Cl
- pIC50: > 6.00

Compound: O=C(Nc1cc2nc[nH]c(=O)c2cc1Cl)C(NC1CC1)c1ccccc1 (configuration not stated)
- pIC50: > 6.00

Compound: CN1CCC(C(=O)Nc2cc3cc[nH]c(=O)c3cc2F)CC1
- pIC50: > 6.00

Compound: COC(=O)C[C@@H](C)C(=O)Nc1cc2cc[nH]c(=O)c2cc1Cl
- pIC50: > 6.00

Compound: COc1cccc(CC(=O)Nc2ccc3c(=O)[nH]ccc3c2)c1
- pIC50: > 6.00

Compound: C[C@@H]1CNCC[C@@H]1C(=O)Nc1cc2cc[nH]c(=O)c2cc1Cl
- pIC50: > 6.00

Compound: O=C(Nc1cc2cc[nH]c(=O)c2cc1Cl)C1(c2ccc(Cl)cc2)CCNCC1
- pIC50: > 6.00

Compound: O=C(Nc1cc2cc[nH]c(=O)c2cc1Cl)C(NC1CCC1)c1ccccc1 (configuration not stated)
- pIC50: > 6.00

Compound: O=C(CNCC1CCCCC1)Nc1ccc2c(=O)[nH]ccc2c1
- pIC50: > 6.00

Compound: CC(C)O[C@@H](C(=O)Nc1cc2cc[nH]c(=O)c2cc1Cl)c1ccccc1
- pIC50: > 6.00

Compound: C[C@](O)(C(=O)Nc1cc2cc[nH]c(=O)c2cc1Cl)c1ccccc1
- pIC50: > 6.00

Compound: O=C(Nc1cc2cc[nH]c(=O)c2cc1Cl)[C@@H]1CCCCN1
- pIC50: > 6.00

Compound: CC(NCC1CCCCC1)C(=O)Nc1cc2cc[nH]c(=O)c2cc1Cl (configuration not stated)
- pIC50: > 6.00

Compound: O=C(CNCc1cccnc1)Nc1cc2cc[nH]c(=O)c2cc1Cl
- pIC50: > 6.00
